{"source": "patent US20160355782A1", "about": "“METHOD FOR ENHANCING DIFFERENTIATION OF DOPAMINERGIC NEURONS” (Buddhist Tzu Chi Medical Foundation, priority 2015, published 2016)", "key": {"[1]": {"system": "human DA neuroblastoma SH-SY5Y cells", "assay": "Western blot of TH protein in SH-SY5Y cells", "assay_type": "cell-based", "conditions": "UCN vs control medium", "procedure": "Human DA neuroblastoma SH-SY5Y cells were grown in Minimal Essential Medium (MEM)/F12 medium containing 10% FBS, 2 mM L-glutamine, 100 μM nonessential amino acids, 100 U/mL penicillin, and 100 μg/mL streptomycin. Cells were incubated at 37° C. under saturating humidity in 5% CO2/95% air.\nFor Western blot analysis, VM precursor cells were lysed in M-PER® Mammalian Protein Extraction Reagent (Pierce). Protein concentration was determined by Bradford assay (Bio-Rad, Hercules, Calif.). 30˜50 μg of protein sample was separated on 10˜12% sodium dodecyl sulphate-polyacrylamide gel (SDS-PAGE) and transferred to immobilon polyvinylidene difluoride (PVDF) membranes (Merck Millipore). The membranes were incubated in Tris-buffered saline (TBST, 0.1 M Tris/HCl, pH 7.4, 0.9% NaCl, 0.1% Tween 20) supplemented with 5% non-fat dry milk for 1 h to block nonspecific binding. […] The antigen-antibody complex was detected by using an ECL chemi-luminescence detection system (PerkinElmer, Boston, Mass.). The intensity of the bands was quantified with a GS-800 calibrated densitometer (Bio-Rad), and calculated as the optical density X area of bands."}, "[2]": {"system": "Nurr1 complexes in VM precursor cells", "assay": "Immuno-precipitation with anti-Nurr1 antibody in VM precursor cells", "assay_type": "cell-based, rat", "conditions": "UCN, 24 hours", "procedure": "For immuno-precipitation, VM precursor cells were treated with UCN for 24 hours and then harvested with M-PER® Mammalian Protein Extraction Reagent (Pierce, Rockford, Ill.) containing 1 mM PMSF, 10 μg/mL aprotinin, 10 μg/mL leupeptin, and 5 μg/mL pepstatin A. The cytosolic lysates (250 μg of protein) were incubated with a rabbit anti-Nurr1 antibody (Santa Cruz Biotechnology) with gentle rocking overnight at 4° C. PureProteome™ protein G magnetic beads (Merck Millipore, Billerica, Mass.) were added (15 μL of suspension) and rotated for 3 h at 4° C. After washing the beads with ice-cold immuno-precipitation buffer (20 mM Tris, pH 7.5, 150 mM NaCl, 1 mM EDTA, 1 mM EGTA, 1% Triton X-100, 2.5 mM sodium pyrophosphate, 1 mM β-glycerolphosphate, 1 mM Na3VO4, 1 μg/mL leupeptin, 1 mM PMSF), immuno-precipitated proteins were eluted in sample buffer, and subjected to Western blot analyses with anti-MeCP2, -CoREST, -HDAC1, -Nurr1, -Foxa2, or -Pitx3 antibodies."}, "VM of E16.5 rat embryos": {"system": "VM of E16.5 rat embryos", "assay": "In vivo DA neuron differentiation in VM of rat embryos (immuno-histochemistry)", "procedure": "The pregnant rats on day 12.5 of gestation were intra-peritoneally injected with saline or 10 μg/kg UCN every 24 hours for 3 days (FIGS. 7H & 7I) or 4 days (FIGS. 7A, 7B, & 7E-7G) before sacrifice. FIG. 7A is an image of immuno-staining against TH of rat E16.5 mesencephalon. FIG. 7B is cell counting analysis of TH^+ cells in the VM of E16.5 saline and UCN-treated embryos (**p<0.01 compared with saline group). […] FIGS. 7H and 7I show histone H3 acetylation (H) and Nurr1 recruitments (I) at the TH promoter by ChIP analyses which were performed with chromatin prepared from E15.5 VM tissue of saline or UCN-treated embryos (*p<0.05; **p<0.01 compared with saline groups). Con: control medium.\nFor immuno-histochemistry, rat embryos were perfused with 4% paraformaldehyde, cryopreserved with 30% sucrose in PBS overnight, embedded in Tissue Tek OCT compound (Sakura Finetek, Torrance, Calif.), and then frozen at −80° C. For Nurr1 staining, the embryos were perfused with 4% paraformaldehyde/0.15% picric acid followed by soaking in the same solution overnight at 4° C. Coronal sections (16 μm thick) were blocked with 2% FBS and 3% normal goat or normal donkey serum for 1 h at room temperature, and subsequently incubated with primary antibodies overnight at room temperature. Primary antibodies were rabbit anti-Lmx1b (1:3000), guinea-pig anti-Lmx1b (1:1500), rabbit anti-UCN (1:200), goat anti-CRHR1 (1:100), rabbit anti-CRHR2 (1:250), mouse anti-Nurr1 (1:100), rabbit anti-Nurr1 (1:100), and mouse anti-TH (1:2000). After washing with PBS, secondary antibodies conjugated to the FITC or rhodamine were applied to sections for 1 h. Sections were examined with fluorescent microscope or confocal microscope. Quantitative cell counts were performed in every third section through the entire A9-A10 populations in 5-10 embryos per condition."}, "rat TH promoter": {"system": "rat TH promoter", "assay": "ChIP at the TH promoter with chromatin from E15.5 VM tissue of treated embryos", "assay_type": "in vivo", "conditions": "10 μg/kg UCN i.p. every 24 h for 3 days", "procedure": "VM precursor cultures were treated with 1 μM UCN for about 1 to 2 days. VM cells for ChIP from rat embryos, the pregnant rats on day 12.5 of gestation were intra-peritoneally injected with saline as control or 10 μg/kg UCN as treatment every 24 h for 3 days before sacrifice. The ventral mesencephalon from E15.5 embryos was dissected. Cells were cross-linked with 1% formaldehyde, and stored at −80° C. before use.\nChromatin immuno-precipitation (ChIP) assays were performed using SimpleChIP® Enzymatic Chromatin IP kit (Cell Signaling Technology, Beverly, Mass.) by the instruction of the kit. Briefly, cross-linked chromatin in the cells was enzymatic digested to generate fragments with a length of approximately 150-900 bp (1 to 5 nucleosomes). The chromatin was subjected to immuno-precipitation using the following antibodies: anti-Nurr1 (Santa Cruz), anti-acetyl histone H3 (Ac-H3), anti-HDAC1, anti-CoREST (all from Upstate Biotechnology), anti-MeCP2 (Chemicon,), anti-Foxa2 (Cell signaling Technology), anti-Pitx3, and IgG (both from Abcam). Immuno-precipitated DNA fragments were collected by protein G magnetic beads. DNA/protein complexes were eluted from the beads and reverse cross-linked at 65° C. for 2 h in the presence of proteinase K. Purified DNA were subjected to real-time PCR using primers specific to rat TH promoter loci (referring to Table 2). […]"}}, "data": [{"substance": "Urocortin [UCN]", "values": [{"measurement": "TH protein levels", "setting": "[1]", "result": "induced the increases"}, {"measurement": "amount of Foxa2 that precipitates with Nurr1", "setting": "[2]", "result": "markedly enhanced"}, {"measurement": "interaction between Pitx3 and Nurr1 proteins", "setting": "[2]", "result": "not significantly altered"}, {"measurement": "proportion of TH+/Nurr1+ cells in the VM", "setting": "VM of E16.5 rat embryos; UCN treated vs saline-treated embryos, E16.5", "result": "significant proportion of the Nurr1+ cells differentiate into TH+ neurons"}, {"measurement": "number of ventral mesencephalic TH+ cells", "setting": "VM of E16.5 rat embryos; pregnant rats, 10 μg/kg UCN i.p. every 24 hours for 4 days, E16.5 embryos", "result": "increased number"}, {"measurement": "Nurr1+ cell numbers in the VM", "setting": "VM of E16.5 rat embryos; saline vs UCN-treated embryos, E16.5", "result": "no significant difference"}, {"measurement": "Nurr1 binding to the TH promoter regions (NB2, NB3 and repeated CpGs)", "setting": "rat TH promoter", "result": "more abundant"}, {"measurement": "histone H3 acetylation in TH promoter regions", "setting": "rat TH promoter", "result": "significantly increased"}]}]}
